Reference: US20190151312A1, “HEPARAN SULFATE BIOSYNTHESIS INHIBITORS FOR THE TREATMENT OF DISEASES” (BioMarin Pharmaceutical Inc., priority 2014, published 2019)

system: GM01896 cells (MPS II dermal fibroblasts); test: Assay 1: MPS cellular assay, MPS II (heparan sulfate disaccharide biomarkers by LC-MS); assay type: cell-based, human; conditions: Homo sapiens, Fibroblast, Assay 1 for MPS II, heparan sulfate disaccharide biomarkers (I2a4, I2a6, I2S0 and/or I2S6), read-out: IC50 Range
Procedure: Dermal fibroblasts from humans with an MPS disorder and from healthy donors are grown. Cells are expanded and kept in culture for analysis. Human foreskin fibroblasts can be obtained from the American Type Culture Collection (CRL-1634). Human dermal fibroblasts derived from biopsies of individuals are purchased from Coriell Institute: clinically healthy individuals, GM00408, GM00409, GM00200 (clinically unaffected sibling of an individual with metachromatic leukodystrophy), GM05659, GM08398, and GM15871 (clinically unaffected sibling of an individual with unclassified Ehlers-Danlos syndrome); heterozygous MPS I carriers, GM01392, GM01393 and GM0003; homozygous individuals affected with MPS I, GM06214, GM11495, GM00034, GM01391 and GM01256; individuals with MPS II, GM01896, GM03181, GM00615 and GM00298; individuals with MPS IIIA, GM00879, GM00643, GM00934, GM06110 and GM00629; MPS IIIB, GM01426; MPS IIIC, GM05157; MPS IIID, GM05093; and MPS VII, GM00121. All cells are grown in DMEM containing 50 U ml-1 penicillin, […] ml-1 streptomycin, 2 mM glutamine and 10% FBS. Cells are seeded on 15-cm-diameter tissue culture dishes, grown to confluence and maintained in culture for analysis. Sulfamidase activity in cell extracts is measured with 4-methylumbelliferyl-α-D-N-sulfoglucosaminide according the vendors instructions substituting Tris-acetate buffer (pH 6.5; Moscerdam).
Cells are treated with a compound of the invention at a concentration at or below 30 μM for 4 to 21 days. Cell monolayers are washed with phosphate buffered saline and detached by treatment with GIBCO trypsin-EDTA solution (Invitrogen). After centrifugation, the supernatant is removed and the cells are lysed in 0.5 mL of 0.1 N sodium hydroxide. The amount of protein is determined by bicinchoninic acid (BCA assay, Thermo Scientific). GAGs are isolated by anion exchange chromatography and digested with glycosaminoglycan lyases (heparinases I, II, and III, IBEX).
Enzymatically depolymerized GAG preparations are differentially mass labeled by reductive amination with [^12C6]aniline. Briefly, heparan sulfate disaccharides (1-10 pmol) are dried down in a centrifugal evaporator and reacted with [^12C6]aniline or [^13C6]aniline (15 μL, 165 μmol) and 15 μL of 1 M NaCNBH3 (Sigma-Aldrich) freshly prepared in dimethylsulfoxide/acetic acid (7:3, v/v) is added to each sample. Reactions are carried out at 37° C. for 16 h and then dried in a centrifugal evaporator. Unsubstituted amines are reacted with propionic anhydride (Sigma-Aldrich). Dried samples are reconstituted in 20 μL of 50% methanol, and 3 μL of propionic anhydride (Sigma-Aldrich, 23.3 μmol) is added. Reactions are carried out at ˜23° C. for 2 h. Acylated disaccharides are subsequently aniline tagged as described above. Each sample is mixed with commercially available standard unsaturated disaccharides (Seikagaku), standard N-sulfoglucosamine, glucosamine-6-sulfate, N-acetylgalactosamine-4-sulfate and N-acetylgalactosamine-6-sulfate (Sigma-Aldrich), and/or synthesized α-L-idopyranosyluronate-(1,4)-2-N-acetyl-2-deoxy-α/β-D-glucopyranoside (I0S0). All standards are tagged with [^13C6]aniline (Sigma-Aldrich). Samples are then analyzed by LC-MS using an LTQ Orbitrap Discovery electrospray ionization mass spectrometer (Thermo Scientific) equipped with quaternary HPLC pump (Finnigan Surveyor MS pump) and a reverse-phase capillary column as described in J. Biol. Chem. 2008, 283(48), 33674.
MPS II: Assay 1, as described above, was used to determine activity for MPS II using GM01896 cells. […] Extracted ion chromatograms were obtained. Cell viability was monitored using alamar blue or ATP quantification. IC50's were calculated using curve fitting within the ChemInnovation CBIS database system.

First: Cn1ncc2ccc(-c3cc(Nc4cccc(-c5ncco5)c4)nc(N4CCOCC4)n3)cc21 [[6-(1-methyl(1H-indazol-6-yl))-2-morpholin-4-ylpyrimidin-4-yl](3-(1,3-oxazol-2-yl)phenyl)amine]
Second: Cn1ncc2ccc(-c3cc(Nc4ccc(-c5cocn5)cc4)nc(N4CCOCC4)n3)cc21 [[6-(1-methyl(1H-indazol-6-yl))-2-morpholin-4-ylpyrimidin-4-yl](4-(1,3-oxazol-4-yl)phenyl)amine]
The IC50 of the first is higher: 1000 to 5000 nM for the first, under 500 nM for the second. The second is the more potent here.

CC(C)NC(=O)c1ccc(Nc2cc(-c3ccc4ncn(C)c4c3)nc(N3CCOCC3)n2)cc1 [(4-{[6-(1-methylbenzimidazol-6-yl)-2-morpholin-4-ylpyrimidin-4-yl]amino}phenyl)-N-(methylethyl)carboxamide] and COc1ccc(Nc2cc(-c3ccc4ncn(C)c4c3)nc(N3CCOCC3)n2)cc1 [(4-methoxyphenyl)[6-(1-methylbenzimidazol-6-yl)-2-morpholin-4-ylpyrimidin-4-yl]amine] fall in the same range of IC50: 1000 to 5000 nM for the first, 1000 to 5000 nM for the second.

COc1ccc(Nc2cc(-c3ccc4cnn(C)c4c3)nc(N3CCOCC3)n2)cc1 [(4-methoxyphenyl)[6-(1-methyl(1H-indazol-6-yl))-2-morpholin-4-ylpyrimidin-4-yl]amine] and Cc1ccc(Nc2cc(-c3ccc4cnn(C)c4c3)nc(N3CCOCC3)n2)cc1 [[6-(1-methyl(1H-indazol-6-yl))-2-morpholin-4-ylpyrimidin-4-yl](4-methylphenyl)amine] fall in the same range of IC50: 1000 to 5000 nM for the first, 1000 to 5000 nM for the second.

Compared with CN(C)CCn1ncc2ccc(-c3cc(Nc4ccc(Cl)cc4)nc(N4CCOCC4)n3)cc21 [[2-(6-{6-[(4-chlorophenyl)amino]-2-morpholin-4-ylpyrimidin-4-yl}(1H-indazolyl))ethyl]dimethylamine], Clc1ccc(Nc2cc(-c3ccc4cnn(C5CC5)c4c3)nc(N3CCOCC3)n2)cc1 [(4-chlorophenyl)[6-(1-cyclopropyl(1H-indazol-6-yl))-2-morpholin-4-ylpyrimidin-4-yl]amine] is higher in IC50: 500 to 1000 nM for the first, 1000 to 5000 nM for the second. The first is the more potent here.

First: CNC(=O)c1ccc(Nc2cc(-c3ccc4ncn(CC5CC5)c4c3)nc(N3CCOCC3)n2)cn1 [[5-({6-[1-(cyclopropylmethyl)benzimidazol-6-yl]-2-morpholin-4-ylpyrimidin-4-yl}amino)(2-pyridyl)]-N-methylcarboxamide]
Second: CNC(=O)c1ccc(Nc2cc(-c3ccc4c(cnn4C)c3)nc(N3CCOCC3)n2)cn1 [N-methyl(5-{[6-(1-methyl(1H-indazol-5-yl))-2-morpholin-4-ylpyrimidin-4-yl]amino}(2-pyridyl))carboxamide]
The IC50 of the first is lower: under 500 nM for the first, 500 to 1000 nM for the second.

First: Cc1nn(C)c2cc(-c3cc(Nc4ccc5[nH]ccc5c4)nc(N4CCOCC4)n3)ccc12 [[6-(1,3-dimethyl(1H-indazol-6-yl))-2-morpholin-4-ylpyrimidin-4-yl]indol-5-ylamine]
Second: Cc1nnc(-c2ccc(Nc3cc(-c4ccc5c(C)nn(C)c5c4)nc(N4CCOCC4)n3)cc2)[nH]1 [[6-(1,3-dimethyl(1H-indazol-6-yl))-2-morpholin-4-ylpyrimidin-4-yl][4-(5-methyl(4H-1,2,4-triazol-3-yl))phenyl]amine]
The IC50 of the first is higher: 1000 to 5000 nM for the first, under 500 nM for the second. The second is the more potent here.

First: CNC(=O)c1ccc(Nc2cc(-c3ccc4cn(CCN(C)C)nc4c3)nc(N3CCOCC3)n2)cc1 [{4-[(6-{2-[2-(dimethylamino)ethyl](2H-indazol-6-yl)}-2-morpholin-4-ylpyrimidin-4-yl)amino]phenyl}-N-methylcarboxamide]
Second: Cn1ncc2ccc(-c3cc(Nc4ccc(C(=O)NC5(C)CC5)cc4)nc(N4CCOCC4)n3)cc21 [(4-{[6-(1-methyl(1H-indazol-6-yl))-2-morpholin-4-ylpyrimidin-4-yl]amino}phenyl)-N-(methylcyclopropyl)carboxamide]
The IC50 of the first is lower: under 500 nM for the first, 1000 to 5000 nM for the second.

Cc1nn(C)c2nc(-c3cc(Nc4ccc(Cl)cc4)nc(N4CCOCC4)n3)ccc12 [[6-(1,3-dimethylpyrazolo[4,5-e]pyridin-6-yl)-2-morpholin-4-ylpyrimidin-4-yl](4-chlorophenyl)amine] and CCc1nn(C)c2cc(-c3cc(Nc4ccc(Cl)cc4)nc(N4CCOCC4)n3)ccc12 [(4-chlorophenyl)[6-(3-ethyl-1-methyl(1H-indazol-6-yl))-2-morpholin-4-ylpyrimidin-4-yl]amine] fall in the same range of IC50: 1000 to 5000 nM for the first, 1000 to 5000 nM for the second.

First: CNC(=O)c1ccc(Nc2cc(-c3ccc4cnn(CCCN5CCCC5)c4c3)nc(N3CCOCC3)n2)cc1 [N-methyl[4-({2-morpholin-4-yl-6-[1-(3-pyrrolidinylpropyl)(1H-indazol-6-yl)]pyrimidin-4-yl}amino)phenyl]carboxamide]
Second: CNC(=O)c1ccc(Nc2cc(-c3ccc4cnn(CCN5CCOCC5)c4c3)nc(N3CCOCC3)n2)cc1 [N-methyl[4-({2-morpholin-4-yl-6-[1-(2-morpholin-4-ylethyl)(1H-indazol-6-yl)]pyrimidin-4-yl}amino)phenyl]carboxamide]
The IC50 of the first is lower: under 500 nM for the first, 500 to 1000 nM for the second.

First: Cc1nnc(-c2ccc(Nc3cc(-c4ccc5nc(C)n(CC6CC6)c5c4)nc(N4CCOCC4)n3)cc2)[nH]1 [{6-[1-(cyclopropylmethyl)-2-methylbenzimidazol-6-yl]-2-morpholin-4-ylpyrimidin-4-yl}[4-(5-methyl(4H-1,2,4-triazol-3-yl))phenyl]amine]
Second: Cn1ccnc1-c1ccc(Nc2cc(-c3ccc4cnn(C)c4c3)nc(N3CCOCC3)n2)cc1 [[6-(1-methyl(1H-indazol-6-yl))-2-morpholin-4-ylpyrimidin-4-yl][4-(1-methylimidazol-2-yl)phenyl]amine]
The IC50 of the first is lower: under 500 nM for the first, 500 to 1000 nM for the second.

CNC(=O)c1ccc(Nc2cc(-c3ccc4c(c3)ncn4CCCN3CCCC3)nc(N3CCOCC3)n2)cc1 [N-methyl[4-({2-morpholin-4-yl-6-[1-(3-pyrrolidinylpropyl)benzimidazol-5-yl]pyrimidin-4-yl}amino)phenyl]carboxamide] and Clc1ccc(Nc2cc(-c3ccc4ncn(CCN5CCCC5)c4c3)nc(N3CCOCC3)n2)cc1 [(4-chlorophenyl){2-morpholin-4-yl-6-[1-(2-pyrrolidinylethyl)benzimidazol-6-yl]pyrimidin-4-yl}amine] fall in the same range of IC50: 500 to 1000 nM for the first, 500 to 1000 nM for the second.

Compared with Clc1ccc(Nc2cc(-c3ccc4c(cnn4CCN4CCOCC4)c3)nc(N3CCOCC3)n2)cc1 [(4-chlorophenyl){2-morpholin-4-yl-6-[1-(2-morpholin-4-ylethyl)(1H-indazol-5-yl)]pyrimidin-4-yl}amine], Cn1nc(NCCN2CCCC2)c2ccc(-c3cc(Nc4ccc(Cl)cc4)nc(N4CCOCC4)n3)cc21 [(4-chlorophenyl)(6-{1-methyl-3-[(2-pyrrolidinylethyl)amino](1H-indazol-6-yl)}-2-morpholin-4-ylpyrimidin-4-yl)amine] is lower in IC50: 1000 to 5000 nM for the first, 500 to 1000 nM for the second.

Cn1ncc2ccc(-c3cc(Nc4ccc([S+](C)[O-])cc4)nc(N4CCOCC4)n3)cc21 (stereo not shown) [1-{[6-(1-methyl(1H-indazol-6-yl))-2-morpholin-4-ylpyrimidin-4-yl]amino}-4-(methylsulfinyl)benzene] and Cn1ncc2ccc(-c3cc(Nc4ccc(N5CN=NC5=O)cc4)nc(N4CCOCC4)n3)cc21 [4-(4-{[6-(1-methyl(1H-indazol-6-yl))-2-morpholin-4-ylpyrimidin-4-yl]amino}phenyl)-1,2,4-triazolin-5-one] fall in the same range of IC50: 1000 to 5000 nM for the first, 1000 to 5000 nM for the second.

First: Cn1cnc2ccc(-c3cc(Nc4ccc(S(N)(=O)=O)cc4)nc(N4CCOCC4)n3)cc21 [4-{[6-(1-methylbenzimidazol-6-yl)-2-morpholin-4-ylpyrimidin-4-yl]amino}benzenesulfonamide]
Second: CN1CCN(CCc2nn(C)c3cc(-c4cc(Nc5ccc(Cl)cc5)nc(N5CCOCC5)n4)ccc23)CC1 [(4-chlorophenyl)(6-{1-methyl-3-[2-(4-methylpiperazinyl)ethyl](1H-indazol-6-yl)}-2-morpholin-4-ylpyrimidin-4-yl)amine]
The IC50 of the first is higher: 1000 to 5000 nM for the first, 500 to 1000 nM for the second.
